# Reference: PMC3556092, “Cellular responses induced by Cu(II) quinolinonato complexes in human tumor and hepatic cells” (Chemistry Central Journal, 2012)
# Read-outs that look alike come from different tables or passages of the source.
# Experiments:
# [1] = system: A549 lung carcinoma cells; assay: In vitro cytotoxicity, MTT assay, A549; assay type: cell-based, human; conditions: 24 h, read-out: IC50 ± SD, A549
# Method: (§1) Figure S1. […] The cells were plated at 96-well dishes and cultured according manufacturer instructions. The tested compounds were applied to the cells for 24 h in concentrations ranging from 0.01 to 50 µM. The tested compounds were applied to the cells for 24 h. The cytotoxicity was assessed by the MTT test, measurements were performed in triplicate, and each cytotoxicity experiment was repeated three times. The data are expressed as IC50 ± SD (μM).
# [2] = system: A2780 ovarian carcinoma cells; assay: In vitro cytotoxicity, MTT assay, A2780; assay type: cell-based, human; conditions: 24 h, read-out: IC50 ± SD, A2780
# Method: as §1, with “S4.” for “S1.”
# [3] = system: G361 malignant melanoma cells; assay: In vitro cytotoxicity, MTT assay, G361; assay type: cell-based, human; conditions: 24 h, read-out: IC50 ± SD, G361
# Method: as §1, with “S3.” for “S1.”
# [4] = system: IL-1β secretion, LPS-stimulated THP-1 cells; assay: LPS-induced IL-1β secretion in THP-1 macrophages (ELISA); assay type: cell-based, human; conditions: 0.2 μM; for increase of IL-1β secretion, factor: LPS-activated cells, 24 h; for IL-1β secretion: 1 h pre-treatment, then LPS 24 h
# Method: (§2) To determine the influence of the tested complexes on the TNF-α and IL-1β secretions, the human monocytic leukemia cell line THP-1 was used. The cells were cultivated at 37°C in the RPMI 1640 medium supplemented with 2 mM L-glutamine, 10% fetal bovine serum (FBS), 100 U/mL of penicillin and 100 μg/mL of streptomycin in a humidified atmosphere containing 5% CO2. The stabilized cells (3rd–20th passage) were split into microtitration plates to get a concentration of 100 000 cells/mL and the differentiation to macrophages was induced by a phorbol myristate acetate (PMA) as we described previously.
# (§3) Differentiated macrophages were pretreated for 1 h with 0.2 μM solutions of the tested complexes, prednisone or CuSO4 · 5 H2O dissolved in DMSO (the final DMSO concentration was 0.1%) and with 0.1% DMSO solution itself (the experimental group called vehicle); the given concentrations of the tested compounds lack the cytotoxic effect. The inflammatory response was triggered by adding 1.0 μg/mL lipopolysaccharide (LPS) dissolved in water to pretreated macrophages, control cells were without the LPS treatment. Each experiment was repeated three-times.
# (§4) Macrophages pretreated with the tested compounds for 1 h were incubated with LPS for next 24 h. After this period, the medium was collected and the concentration of TNF-α and IL-1β was measured by Instant ELISA kit (eBioscience, Vienna, Austria) according to the manufacturer’s manual.
# [5] = system: A2780cis cisplatin-resistant ovarian carcinoma cells; assay: In vitro cytotoxicity, MTT assay, A2780cis; assay type: cell-based, human; conditions: for IC50: 24 h, MTT, read-out: IC50 ± SD, A2780cis; for IC50(A2780cis)/IC50(A2780) ratio (resistance factor): in comparison with cisplatin
# Method: as §1, with “S5.” for “S1.”
# [6] = system: HeLa cervix epitheloid carcinoma cells; assay: In vitro cytotoxicity, MTT assay, HeLa; assay type: cell-based, human; conditions: 24 h, read-out: IC50 ± SD, HeLa
# Method: as §1, with “S2.” for “S1.”
# [7] = system: TNF-α secretion, LPS-stimulated THP-1 cells; assay: LPS-induced TNF-α secretion in THP-1 macrophages (ELISA); assay type: cell-based, human; conditions: 0.2 μM; for increase of TNF-α secretion, factor in comparison to vehicle: LPS-activated macrophages, 24 h; for TNF-α secretion: 1 h pre-treatment, then LPS 24 h
# Method: as §2, §3, §4
# [8] = system: THP-1 monocytic leukemia cells; assay: In vitro cytotoxicity, WST-1 test, THP-1; assay type: cell-based, human; conditions: 24 h, WST-1, serum-free medium; read-out: IC50 ± SD, THP-1
# Method: as §1, with “S7.” for “S1.”
# [9] = system: LNCaP androgen-sensitive prostate adenocarcinoma cells; assay: In vitro cytotoxicity, MTT assay, LNCaP; assay type: cell-based, human; conditions: 24 h, read-out: IC50 ± SD, LNCaP
# Method: as §1, with “S6.” for “S1.”
# [10] = system: primary human hepatocytes (HH1); assay: Toxicity to primary human hepatocytes; assay type: cell-based; conditions: 24 h, MTT; read-out: IC50 ± SD, HH1 (toxicity to primary human hepatocytes)
# [11] = system: all cancer cell lines (A2780, A2780cis, G361, A549, HeLa, LNCaP, THP-1); assay: Antiproliferative effect of starting compounds on all cancer cell lines; conditions: read-out: IC50, in vitro cytotoxicity of starting compounds on all cancer cell lines, 24 h
# [12] = system: aryl hydrocarbon receptor (AhR) transcriptional activity; assay: AhR gene reporter assay in AZ-AhR cells; assay type: cell-based, human; conditions: 24 h; complexes 10 nM – 5 μM; TCDD 10 pM – 10 μM
# [13] = system: glucocorticoid receptor (GR) transcriptional activity; conditions: 24 h; complexes 10 nM – 5 μM; DEX 10 pM – 100 nM
# [14] = system: THP-1 monocytic leukemia cells; set-up: method as in PMID 15139770; conditions: cited from earlier work
Compound,IC50 [1],IC50 [2],IC50 [3],"increase of IL-1β secretion, factor [4]",IC50 [5],IC50 [6],"increase of TNF-α secretion, factor in comparison to vehicle [7]",IC50 [8],IC50 [9],IC50 [10],other results
"Cc1cc2cccnc2c2ncccc12.O.O=[N+]([O-])[O-].O=c1c([O-])c(-c2ccccc2)[nH]c2ccccc12.[Cu+2] [compound 3, [Cu(qui)(mphen)]NO3 · H2O]",2500 ± 600 nM,380 ± 30 nM,530 ± 220 nM,practically no influence,780 ± 70 nM,2600 ± 400 nM,~ 1.25,1500 ± 300 nM,2100 ± 600 nM,> 10000 nM,
F[B-](F)(F)F.F[B-](F)(F)F.[Cu+2] [Cu(BF4)2 · H2O],,,,,,,,,,,IC50 [11]: > 50000 nM
"O.O=[N+]([O-])[O-].O=c1c([O-])c(-c2ccccc2)[nH]c2ccccc12.[Cu+2].c1ccc(-c2ccnc3c2ccc2c(-c4ccccc4)ccnc23)cc1 [compound 5, [Cu(qui)(bphen)]NO3 · H2O]",1700 ± 300 nM,660 ± 70 nM,960 ± 30 nM,6.9,730 ± 80 nM,1000 ± 200 nM,1.8,570 ± 80 nM,740 ± 210 nM,3600 ± 200 nM,IL-1β secretion [4]: 1177 ± 128 pg/mL; IC50(A2780cis)/IC50(A2780) ratio (resistance factor) [5]: practically two times lower; TNF-α secretion [7]: 2873 ± 238 pg/mL
O=[N+]([O-])[O-].O=[N+]([O-])[O-].[Cu+2] [Cu(NO3)2 · 3H2O],,,,,,,,,,,IC50 [11]: > 50000 nM
"Clc1cc2c(cc1Cl)Oc1cc(Cl)c(Cl)cc1O2 [TCDD, 2,3,7,8-tetrachlorodibenzo-p-dioxin]",,,,,,,,,,,"luciferase activity in AZ-AhR cells [12]: strongly, dose-dependently induced"
"Cc1cc2cccnc2c2ncccc12 [mphen, 5-methyl-1,10-phenanthroline]",,,,,,,,,,,IC50 ([11]; Homo sapiens): > 50000 nM
"C[C@]12C=CC(=O)C=C1CC[C@@H]1[C@@H]2C(=O)C[C@@]2(C)[C@H]1CC[C@]2(O)C(=O)CO [prednisone, reference compound]",,,,,,,,,,,IL-1β secretion [4]: 118.5 ± 4.8 pg/mL; TNF-α secretion [7]: 1173 ± 85 pg/mL
"c1ccc(-c2ccnc3c2ccc2c(-c4ccccc4)ccnc23)cc1 [bphen, bathophenanthroline]",,,,,,,,,,,IC50 [11]: > 50000 nM
"C[C@@H]1C[C@H]2[C@@H]3CCC4=CC(=O)C=C[C@]4(C)[C@@]3(F)[C@@H](O)C[C@]2(C)[C@@]1(O)C(=O)CO [DEX, dexamethasone]",,,,,,,,,,,"luciferase activity in AZ-GR cells [13]: strongly, dose-dependently induced"
"Cc1cc2cccnc2c2ncccc12.F[B-](F)(F)F.O.O=c1c([O-])c(-c2ccccc2)[nH]c2ccccc12.[Cu+2] [compound 4, [Cu(qui)(mphen)]BF4 · H2O]",2500 ± 600 nM,360 ± 50 nM,530 ± 90 nM,1.6,560 ± 150 nM,2400 ± 1000 nM,1.6,1100 ± 400 nM,1500 ± 600 nM,9300 ± 600 nM,
"O.O.O.O.O.O=S(=O)([O-])[O-].[Cu+2] [CuSO4·5H2O, reference compound]",,,,~1.6,,,1.4,,,,
"O.O=[N+]([O-])[O-].O=c1c([O-])c(-c2ccccc2)[nH]c2ccccc12.[Cu+2].c1cnc2c(c1)ccc1cccnc12 [compound 1, [Cu(qui)(phen)]NO3 · H2O]",2500 ± 400 nM,650 ± 280 nM,820 ± 150 nM,practically no influence,830 ± 300 nM,2900 ± 300 nM,~ 1.25,2000 ± 100 nM,2400 ± 600 nM,> 10000 nM,
"N.N.[Cl][Pt][Cl] [cisplatin, reference compound]",25800 ± 7100 nM,12000 ± 800 nM,3400 ± 100 nM,,27000 ± 4600 nM,10000 ± 2600 nM,,,3800 ± 1500 nM,,IC50 [14]: 2000 nM
"c1cnc2c(c1)ccc1cccnc12 [phen, 1,10-phenanthroline]",,,,,,,,,,,IC50 ([11]; Homo sapiens): > 50000 nM
"O=c1c(O)c(-c2ccccc2)[nH]c2ccccc12 [Hqui, 2-phenyl-3-hydroxy-4(1H)-quinolinone]",,,,,,,,,,,IC50 ([11]; Homo sapiens): > 50000 nM
"F[B-](F)(F)F.O=c1c([O-])c(-c2ccccc2)[nH]c2ccccc12.[Cu+2].c1cnc2c(c1)ccc1cccnc12 [compound 2, [Cu(qui)(phen)]BF4]",3900 ± 1200 nM,520 ± 100 nM,640 ± 200 nM,practically no influence,1700 ± 600 nM,2700 ± 600 nM,~ 1.25,1700 ± 200 nM,1900 ± 600 nM,20400 ± 1200 nM,
"F[B-](F)(F)F.O=c1c([O-])c(-c2ccccc2)[nH]c2ccccc12.[Cu+2].c1ccc(-c2ccnc3c2ccc2c(-c4ccccc4)ccnc23)cc1 [compound 6, [Cu(qui)(bphen)]BF4]",1300 ± 400 nM,570 ± 110 nM,720 ± 60 nM,6.4,700 ± 200 nM,1300 ± 400 nM,2,560 ± 100 nM,620 ± 80 nM,5300 ± 300 nM,IL-1β secretion [4]: 1087 ± 101 pg/mL; IC50(A2780cis)/IC50(A2780) ratio (resistance factor) [5]: practically two times lower; TNF-α secretion [7]: 3284 ± 139 pg/mL
